Drawing on PubChem BioAssay AID602211 (Sanford-Burnham Center for Chemical Genomics, 2012), this text covers IC50 for 85 compounds.

Calls of active or inactive are those of the source.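 How the source made its calls: active means mean IC50 at or below 10 µM; inactive means the rest.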

Usually IC50 stands for the point on the concentration scale where inhibition reaches its midpoint.

In this experiment the test system is H9c2 cardiomyocytes, H2O2 protection, ATPLite viability, 2 h. Description: protection of H9c2 cardiomyocytes from H2O2 death, dose response, cell-based, ATPLite luminescence, set 2 (AID 602211).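 Further: potency is for protection so actives keep ATP signal up against peroxide killing.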 In general terms: In ATP-based viability assays light output follows the ATP content of the culture.
On to `COc1cccc(C(=O)Nc2cccc(-c3nnc(-c4ccco4)o3)c2)c1`, for which the IC50 is > 79 µM (inactive).
As for `CCN(CC)C(=O)c1[nH]cnc1C(=O)NCC(=O)OCc1ccccc1`, the figure is 6.88 µM; as for `Cc1ccc(-c2nnc(NCc3nc4ccccc4[nH]3)c3ccccc23)cc1S(=O)(=O)N1CCOCC1`, 4.11 µM; as for `COc1ccccc1NC(=O)c1cc(-c2cc(OC)c(OC)c(OC)c2)nc2ccccc12`, 2.88 µM.
For the compound `COc1cc(-c2cc(NC(C)=O)c3ncc(-c4ccc(F)cc4)n3c2)cc(OC)c1OC`, the IC50 is > 79 µM (inactive).
On to `COc1cc(NC(=O)c2csc(-c3ccncc3)n2)cc(C(=O)Nc2cccc(C(F)(F)F)c2)c1`, for which the half-inhibitory concentration (IC50) was 2.7 µM.
As for `CCOC(=O)c1cnc(Nc2nc3ccccc3o2)nc1CSc1nnc(C)s1`, the figure is 12.8 µM (inactive); as for `Cn1c(=O)c2[nH]c(NN=Cc3ccc(Br)cc3)nc2n(C)c1=O`, 5.14 µM; as for `COc1ccc(-c2cc(NC=O)c3ncc(-c4cccc(C(C)=O)c4)n3c2)cc1`, > 79 µM (inactive).
Next, `Cc1c(C(=O)Nc2ccc3nc(N4CCOCC4)sc3c2)oc2ccccc12`: > 79 µM (inactive).
As for `O=C(CN1C(=O)C2C3C=CC(C3)C2C1=O)Nc1nc(-c2ccccn2)cs1` (stereo not given), the figure is 21.1 µM (inactive); as for `COc1ccc(N(CC(=O)Nc2cccc(C(C)=O)c2)S(=O)(=O)c2ccc(NC(C)=O)cc2)cc1`, 3.03 µM.
`COc1cc(/C=N/NC(=O)c2ccccc2)ccc1OS(=O)(=O)c1ccccc1`: the IC50 is 6.29 µM.
Turning to `COC(=O)c1cccc(S(=O)(=O)N(Cc2ccco2)Cc2cc3cc(OC)ccc3[nH]c2=O)c1`, the IC50 is 42.2 µM (inactive).
Next, `N#C/C(=C\c1cn(-c2ccccc2)nc1-c1cccnc1)c1nnc2n1CCCCC2`: 13.7 µM (inactive).
Regarding `COc1cc(NC(=O)c2cccc3c(-c4cnn(C)c4)coc23)cc(OC)c1OC`, the IC50 is 1.56 µM.
Next, `CCn1c(SCC(=O)Nc2ccccc2N2CCCCC2)nc2c1c(=O)n(C)c(=O)n2C`: > 79 µM (inactive).
As for `O=C(N/N=C/c1ccccn1)c1cc(-c2cccc3ccccc23)n[nH]1`, the figure is 6.66 µM; as for `COC(=O)c1ccccc1NC(=O)c1ccc2nccnc2c1`, 50.6 µM (inactive); as for `CCOC(=O)N1CCc2c(sc(NC(=O)CN3CCOCC3)c2C(=O)Nc2ccccc2)C1`, 39.9 µM (inactive).
Next, `COC(=O)c1cc(NC(=O)c2cc3ccccc3o2)cc(C(=O)OC)c1`: 5.42 µM; `CC/C(C)=N\N=C\c1c(O)n(CC)c2cc(C3=NNC(=O)CC3)ccc12`: 16.6 µM (inactive); `O=C(CCCN1C(=O)c2cccc3cccc(c23)C1=O)N1CCN(c2ccccc2O)CC1`: 4.54 µM.
As for `CC(C)C(=O)N1CCN(c2ccc(NC(=O)COc3ccccc3[N+](=O)[O-])cc2)CC1`, the IC50 is 1.07 µM.
For `CC(=O)c1cccc(Nc2nc3ccccc3n3cnnc23)c1`, the IC50 is 3.87 µM.
As for `Cc1c(O)ccc2c(-c3ccccc3)cc(=O)oc12`, the figure is > 79 µM (inactive); as for `O=C(NCc1ccco1)C(c1ccccc1)N(C(=O)Cc1cccs1)c1ccccc1F` (stereo not given), 3.52 µM.
As to `O=C(Nc1ccc(C(=O)N2CCOCC2)cc1)c1cnn2c(C(F)F)cc(-c3ccccc3)nc12`, the concentration for half-maximal inhibition (IC50) is 2.8 µM.
For the compound `COc1ccc2[nH]c(=O)c(CN(CC3CCCO3)S(=O)(=O)c3ccccc3F)cc2c1` (stereo not given), the IC50 was 4.52 µM.
As to `O=C(Nc1ccccc1)c1nc[nH]c1C(=O)NCCCCNC(=O)c1[nH]cnc1C(=O)Nc1ccccc1`, the IC50 was 2.04 µM.
As for `CN1CCc2nc3ccccc3c(C(=O)OCC(=O)N(CCC#N)c3ccccc3)c2C1`, the figure is 22.7 µM (inactive); as for `COc1cc(Nc2nc3ccccc3n3nnnc23)cc(OC)c1OC`, 1.38 µM.
As for `COc1ccc(-c2cc(C(=O)NC(C)c3ccccn3)c3ccccc3n2)cc1OC` (stereo not given), the figure is 5.39 µM; as for `CCOc1cc(/C=C(\C#N)C(=O)Nc2ccc(S(N)(=O)=O)cc2)ccc1OCCN1CCOCC1`, 8.4 µM; as for `CN(C)S(=O)(=O)c1ccc2[nH]cc(/C=C/c3nc4ccccc4c(=O)n3-c3ccccc3)c2c1`, 1.26 µM.
Next, `CC(C)(C)C(=O)Nc1cccc(-c2nnc(-c3cccc(NC(=O)C(C)(C)C)c3)o2)c1`: 4.79 µM; `Cc1ccc(Cn2c(CCNc3nc(-c4ccc(Cl)c([N+](=O)[O-])c4)cs3)nc3cc(C(=O)NCCCO)ccc32)cc1`: 1.48 µM; `COc1cc(CCNc2ccc3nnc(-c4ccccc4)n3n2)cc(OC)c1OC`: 9.52 µM.
For the compound `O=C(c1ccco1)N1CCN(C(=O)c2cc(-c3ccncc3)nc3ccc(Br)cc23)CC1`, the IC50 was 13.8 µM (inactive).
As for `O=C(NCC(=O)N(Cc1ccccc1)C(C(=O)NC1CCCCC1)c1ccco1)c1ccco1` (stereo not given), the figure is 38.7 µM (inactive).
As for `CCN(CC(=O)Nc1ccc(OC)cc1)C(=O)c1cc(-c2cccs2)nn1-c1ccccc1`, the figure is 2.06 µM.
Next, `CCOc1cc(-c2cc(-c3ccc(N)cc3)nc(N)c2C#N)ccc1O`: 5.99 µM; `O=C(Nc1cccc(Cl)c1)c1nc[nH]c1C(=O)NCCCNC(=O)c1[nH]cnc1C(=O)Nc1cccc(Cl)c1`: 1.36 µM; `O=C(NCCN1CCN(c2ccccc2F)CC1)c1cccn2c(=O)c3ccccc3nc12`: 7.34 µM.
As to `COc1cc2nc(Nc3ccc(F)cc3)nc(N)c2cc1OC`, the 50% inhibitory concentration (IC50) was 4.24 µM.
Turning to `COc1ccc(N(CC(=O)N/N=C/c2cccs2)S(=O)(=O)c2ccc(OC)c(OC)c2)cc1`, the IC50 was 10.3 µM (inactive).
As to `O=[N+]([O-])c1ccc(Nc2nc(N/N=C/c3cccc(F)c3)nc(N3CCCC3)n2)cc1`, the IC50 was 9.66 µM.
Next, `COc1ccc(CCNc2nc(-c3cccnc3)nc3ccccc23)cc1OC`: 2.28 µM.
For `CCn1nc(C(=O)NNC(=O)c2cc(Cl)ccc2OC)c2ccccc2c1=O`, the IC50 was 30 µM (inactive).
For `COc1cc(/C=c2\s/c(=C(/C#N)C(=O)N3CCCC3)n(-c3ccccc3)c2=O)ccc1O`, the 50% inhibitory concentration (IC50) is 3.2 µM.
In the case of `COc1ccc(/C=N/NC(=O)c2cc(-c3ccc4c(c3)OCO4)n[nH]2)cc1OC`, the IC50 was 7.49 µM.
As for `COc1cc(OC)cc(C(=O)Nc2ccc(C(=O)Nc3ccccc3OC)cc2)c1`, the figure is 10.2 µM (inactive); as for `COc1cccc(-c2cnc3c(NC=O)cc(-c4cc(OC)c(OC)c(OC)c4)cn23)c1`, 3.61 µM; as for `Cc1c(C(=O)NCC2COc3ccccc3O2)oc2ccc(S(=O)(=O)N3CCOCC3)cc12` (stereo not given), > 79 µM (inactive).
Next, `COC(=O)c1ccc(N)c(N=CC2=C(O)CC(C)(C)CC2=O)c1`: 7.63 µM.
Next, `Cc1nc(SCC(=O)N2CCN(c3ccccc3)CC2)c2oc3ccccc3c2n1`: 3.43 µM; `COc1ccccc1NC(=O)CSc1ccc2nnc(-c3ccc(C)cc3)n2n1`: 3.16 µM; `Cn1c(=O)c2[nH]c(NN=Cc3cccc(Br)c3)nc2n(C)c1=O`: 4.39 µM.
Regarding `CCC(Oc1ccccc1)C(=O)Nc1ccccc1C(=O)N1CCCCC1` (stereo not given), the IC50 is 36.2 µM (inactive).
On to `COc1ccc(CCNC(=O)c2cc3c(C)nccc3[nH]c2=O)cc1OC`, for which the IC50 was 7.47 µM.
Next, `Cc1nn(-c2ccccc2)c(N2CCCC2)c1/C=N/NC(=O)c1cc(-c2ccccn2)nc2ccccc12`: 7.63 µM; `C/C(=N\Nc1nnc2c3ccccc3n(C)c2n1)c1ccc(C)o1`: 10.4 µM (inactive).
As to `O=C(Nc1ccccc1)c1nc[nH]c1C(=O)NCCCCCCNC(=O)c1[nH]cnc1C(=O)Nc1ccccc1`, the IC50 is 5.52 µM.
As for `Nc1c(C(=O)N/N=C/c2cccnc2)oc2nc(-c3ccco3)cc(-c3ccco3)c12`, the figure is 2.45 µM; as for `CCOC(=O)N1CCC(n2c(SCC(=O)N3CCC(C)CC3)nc3ccccc3c2=O)CC1`, > 79 µM (inactive).
Regarding `O=C(NCCc1ccccc1Cl)c1ccc2nc3ccccc3c(=O)n2c1`, the IC50 is 7.16 µM.
`O=C(NCC1CCCO1)C(c1ccc(F)cc1)N(C(=O)Cn1nnc(-c2ccc(F)cc2)n1)c1cccc(O)c1` (stereo not given): the IC50 is 4.48 µM.
For `O=C1OCCN1C(=O)[C@H]1[C@H](c2ccc([N+](=O)[O-])cc2)C(c2ccc(F)cc2)=NN1c1ccc(Br)cc1`, the IC50 is 3.09 µM.
Next, `COc1ccc(/C=N/NC(=O)c2ccc(COc3cccc4cccnc34)cc2)cc1OC`: 3.89 µM; `O=C(CSc1ccc2nnc(-c3ccc(F)cc3)n2n1)N1CCCc2ccccc21`: 1.21 µM; `COc1ccc(CN(C)C(=O)C(Cc2ccccc2)NC(=O)c2ccccc2)cc1F` (stereo not given): 2.67 µM.
Next, `COc1ccccc1NC(=O)COc1ccc(C(=O)OCC(=O)NC(C)(C)C)cc1OC`: 13.7 µM (inactive); `COc1cc(/C=C(\C#N)C(=O)Nc2ccccc2)ccc1OCCN1CCOCC1`: 11.7 µM (inactive); `O=C(N/N=C/c1cn(-c2ccccc2)nc1-c1cccnc1)c1ccccc1`: 12.7 µM (inactive).
For `Cc1cccc(NC(=O)c2oc3ccc(S(=O)(=O)N4CCOCC4)cc3c2C)c1C`, the IC50 is 3.23 µM.
As for `CC(C)(C)OC(=O)CNC(=O)c1[nH]cnc1C(=O)Nc1ccc(CNC(=O)OC(C)(C)C)cc1`, the figure is 2.15 µM; as for `Cc1ccc(-c2csc(N3CCC[C@@H]3C(=O)NCCn3c(-c4ccncc4)nc4ccccc43)n2)cc1`, 2.83 µM; as for `CCOC(=O)C1=C(C)NC(C)=C(C(=O)OCC)C1C(=O)OCC(=O)NC1CCCCC1`, 3.32 µM.
Next, `CCOC(=O)c1ccc(NC(=O)c2nc[nH]c2C(=O)NCCCCCNC(=O)OC(C)(C)C)cc1`: 4.43 µM; `CCOc1ccc(S(=O)(=O)N(C)CCO)cc1-c1nc2c(C(C)(C)C)nn(C)c2c(=O)[nH]1`: 5.22 µM; `Cc1nnc2ccc(-c3cccc(NC(=O)c4ccc(Cl)nc4)c3)nn12`: 2.62 µM.
Consider `CCOC(=O)N1CCN(C(=O)CSc2nc3c(cnn3-c3ccc(C)cc3)c(=O)[nH]2)CC1`, for which the IC50 was 2.14 µM.
On to `COc1cc(CN2C[C@@H](CO)O[C@@H](n3cnc4c(Nc5ccccc5)ncnc43)C2)cc(OC)c1OC`, for which the IC50 was 10.6 µM (inactive).
Next, `COc1ccccc1NC(=O)c1cc(-c2ccc(OC)c(OC)c2)nc2ccccc12`: 4.06 µM; `O=C/C(=C\Nc1ccccn1)c1nc2cc(Cl)ccc2o1`: 9.92 µM.
